Legend:
Format in all cases: biochemical
[1] = target: T1, JAK3 (Homo sapiens, UniProt P52333); test: JAK3 inhibition (Table 4); settings: read-out: JAK3 Ki
T1 construct: made in house; host or cells: SF9 insect cells (baculovirus)

[2] = target: T2, JAK2 (Homo sapiens, UniProt O60674); test: JAK2 inhibition (Table 4); settings: read-out: JAK2 Ki
T2 construct: made in house; host or cells: SF9 insect cells (baculovirus)

[3] = target: T3, TYK2 (Homo sapiens, UniProt P29597); test: TYK2 inhibition (Table 4)
T3 construct: made in house; host or cells: SF9 insect cells (baculovirus)
T3 sequence (P29597 873-1187): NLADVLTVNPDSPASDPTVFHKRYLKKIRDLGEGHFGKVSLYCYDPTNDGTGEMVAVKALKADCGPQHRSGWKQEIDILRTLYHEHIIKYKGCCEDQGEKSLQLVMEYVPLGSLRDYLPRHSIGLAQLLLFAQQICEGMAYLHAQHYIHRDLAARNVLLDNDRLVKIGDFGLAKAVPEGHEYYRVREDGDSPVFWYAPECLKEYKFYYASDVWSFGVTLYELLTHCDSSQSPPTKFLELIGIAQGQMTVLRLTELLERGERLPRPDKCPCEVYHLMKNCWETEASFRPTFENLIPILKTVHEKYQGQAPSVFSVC

[4] = target: T4, JAK1 (Homo sapiens, UniProt P23458); test: JAK1 inhibition (Table 4); settings: read-out: JAK1 Ki
T4 construct: made in house; host or cells: SF9 insect cells (baculovirus)
T4 sequence (P23458 852-1154): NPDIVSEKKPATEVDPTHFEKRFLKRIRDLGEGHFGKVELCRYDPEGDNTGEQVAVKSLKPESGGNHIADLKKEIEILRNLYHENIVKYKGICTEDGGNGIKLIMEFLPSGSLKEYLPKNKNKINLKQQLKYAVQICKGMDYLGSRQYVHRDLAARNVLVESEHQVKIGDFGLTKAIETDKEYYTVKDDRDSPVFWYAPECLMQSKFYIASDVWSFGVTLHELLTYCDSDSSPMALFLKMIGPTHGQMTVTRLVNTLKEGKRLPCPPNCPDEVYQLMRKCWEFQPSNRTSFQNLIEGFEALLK

T1 sequence (P52333 783-1124): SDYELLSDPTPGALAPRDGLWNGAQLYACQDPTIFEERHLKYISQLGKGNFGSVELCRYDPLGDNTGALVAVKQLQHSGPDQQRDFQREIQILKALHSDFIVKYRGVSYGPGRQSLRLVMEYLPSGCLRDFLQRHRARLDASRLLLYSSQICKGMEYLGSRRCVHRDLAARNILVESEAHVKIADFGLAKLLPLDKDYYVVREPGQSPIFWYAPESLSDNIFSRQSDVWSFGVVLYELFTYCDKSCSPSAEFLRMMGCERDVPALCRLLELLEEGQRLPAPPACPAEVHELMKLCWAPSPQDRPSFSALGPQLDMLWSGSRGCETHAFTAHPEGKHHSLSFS
T2 sequence (O60674 812-1132): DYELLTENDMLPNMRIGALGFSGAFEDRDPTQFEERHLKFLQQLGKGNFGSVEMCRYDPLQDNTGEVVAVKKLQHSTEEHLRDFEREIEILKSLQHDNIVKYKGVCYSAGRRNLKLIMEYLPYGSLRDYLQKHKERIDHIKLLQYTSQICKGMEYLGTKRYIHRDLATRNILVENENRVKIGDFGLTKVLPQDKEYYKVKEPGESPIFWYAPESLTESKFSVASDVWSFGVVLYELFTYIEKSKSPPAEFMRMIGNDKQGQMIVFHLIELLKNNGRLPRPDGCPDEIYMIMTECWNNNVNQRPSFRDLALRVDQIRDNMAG

c1cnc(N2CCC(n3cnc4cnc5[nH]ccc5c43)CC2)nc1 [Example 64, 1-(1-Pyrimidin-2-yl-piperidin-4-yl)-1,6-dihydro-1,3,5,6-tetraaza-as-indacene]
Ki [1]: 0.243 µM | Ki [2]: 0.0514 µM | Ki [3]: 0.495 µM | Ki [4]: 0.0364 µM

c1cc(N2CCC(n3cnc4cnc5[nH]ccc5c43)CC2)ncn1 [Example 65, 1-(1-Pyrimidin-4-yl-piperidin-4-yl)-1,6-dihydro-1,3,5,6-tetraaza-as-indacene]
Ki [1]: 0.281 µM | Ki [2]: 0.0347 µM | Ki [3]: 0.107 µM | Ki [4]: 0.0149 µM

c1ccc(CN2CCC(n3nnc4cnc5[nH]ccc5c43)CC2)cc1 [Example 66, 1-(1-Benzyl-piperidin-4-yl)-1,6-dihydro-1,2,3,5,6-pentaaza-as-indacene]
Ki [1]: 0.0683 µM | Ki [2]: 0.00986 µM | Ki [3]: 0.24 µM | Ki [4]: 0.00715 µM

Fc1cccc(CN2CCC(n3cnc4cnc5[nH]ccc5c43)CC2)c1 [Example 67, 1-[1-(3-Fluoro-benzyl)-piperidin-4-yl]-1,6-dihydro-1,3,5,6-tetraaza-as-indacene]
Ki [1]: 0.00948 µM | Ki [2]: 0.00116 µM | Ki [3]: 0.0236 µM | Ki [4]: 0.00075 µM

Cn1cc(CN2CCC(n3cnc4cnc5[nH]ccc5c43)CC2)cn1 [Example 68]
Ki [1]: 0.354 µM | Ki [2]: 0.0707 µM | Ki [3]: 1.16 µM | Ki [4]: 0.021 µM

O=S(=O)(C1CC1)N1CCC(n2cnc3cnc4[nH]ccc4c32)CC1 [Example 69, 1-(1-Cyclopropanesulfonyl-piperidin-4-yl]-1,6-dihydro-1,3,5,6-tetraaza-as-indacene]
Ki [1]: 0.0933 µM | Ki [2]: 0.00441 µM | Ki [3]: 0.0266 µM | Ki [4]: 0.00344 µM

O=S(=O)(C1CC1)N1CCC[C@@H](n2cnc3cnc4[nH]ccc4c32)C1 [Example 70, (R)-1-(1-Cyclopropanesulfonyl-piperidin-3-yl]-1,6-dihydro-1,3,5,6-tetraaza-as-indacene]
Ki [1]: 0.0386 µM | Ki [2]: 0.0151 µM | Ki [3]: 0.0689 µM | Ki [4]: 0.0125 µM

c1cc2c(ncc3ncn([C@@H]4CCCN(C5COC5)C4)c32)[nH]1 [Example 71, (R)-1-(1-Oxetan-3-yl-piperidin-3-yl]-1,6-dihydro-1,3,5,6-tetraaza-as-indacene]
Ki [1]: 0.307 µM | Ki [2]: 0.378 µM | Ki [3]: 1.68 µM | Ki [4]: 0.264 µM

c1cnc(N2CCC(n3cnc4cnc5[nH]ccc5c43)CC2)cn1 [Example 72, 1-(1-Pyrazin-2-yl-piperidin-4-yl]-1,6-dihydro-1,3,5,6-tetraaza-as-indacene]
Ki [1]: 0.0978 µM | Ki [2]: 0.0109 µM | Ki [3]: 0.0567 µM | Ki [4]: 0.00426 µM

N#Cc1cccc(S(=O)(=O)N2CCC(n3cnc4cnc5[nH]ccc5c43)CC2)c1 [Example 73, 3-[4-(6H-1,3,5,6-Tetraaza-as-indacen-1-yl)-piperidine-1-sulfonyl]benzonitrile]
Ki [1]: 0.0577 µM | Ki [2]: 0.00095 µM | Ki [3]: 0.00682 µM | Ki [4]: 0.00091 µM

O=C(CN1CCC(n2cnc3cnc4[nH]ccc4c32)CC1)c1ccccc1 [Example 74]
Ki [1]: 0.0319 µM | Ki [2]: 0.00298 µM | Ki [3]: 0.0142 µM | Ki [4]: 0.00125 µM

O=C(C1CC1)N1CCC[C@@H](n2cnc3cnc4[nH]ccc4c32)C1 [Example 75, Cyclopropyl-[(R)-3-(6H-1,3,5,6-tetraaza-as-indacen-1-yl)-piperidin-1-yl]methanone]
Ki [1]: 0.0607 µM | Ki [2]: 0.00853 µM | Ki [3]: 0.019 µM | Ki [4]: 0.00589 µM

O=C(CS(=O)(=O)c1ccccc1)N1CCC[C@@H](n2cnc3cnc4[nH]ccc4c32)C1 [Example 76, 2-Benzenesulfonyl-1-[(R)-3-(6H-1,3,5,6-tetraaza-as-indacen-1-yl)-piperidin-1-yl]ethanone]
Ki [1]: 0.232 µM | Ki [2]: 0.073 µM | Ki [3]: 0.531 µM | Ki [4]: 0.0517 µM

O=C(CN1CCOCC1)N1CCC(n2cnc3cnc4[nH]ccc4c32)CC1 [Example 77, 2-Morpholin-4-yl-1-[4-(6H-1,3,5,6-tetraaza-as-indacen-1-yl)-piperidin-1-yl]ethanone]
Ki [1]: 2.16 µM | Ki [2]: 0.185 µM | Ki [3]: 1.94 µM | Ki [4]: 0.0646 µM

CS(=O)(=O)CC(=O)N1CCC[C@@H](n2cnc3cnc4[nH]ccc4c32)C1 [Example 79, 2-Methanesulfonyl-1-[(R)-3-(6H-1,3,5,6-tetraaza-as-indacen-1-yl)-piperidin-1-yl]ethanone]
Ki [1]: 0.0771 µM | Ki [2]: 0.0223 µM | Ki [3]: 0.167 µM | Ki [4]: 0.0157 µM

c1ccc(CCN2CCC(n3cnc4cnc5[nH]ccc5c43)CC2)cc1 [Example 80, 1-(1-Phenethyl-piperidin-4-yl)-1,6-dihydro-1,3,5,6-tetraaza-as-indacene]
Ki [1]: 0.163 µM | Ki [2]: 0.0155 µM | Ki [3]: 0.106 µM | Ki [4]: 0.00561 µM

c1ccc(CN2[C@@H]3CC[C@H]2C[C@H](n2cnc4cnc5[nH]ccc5c42)C3)cc1 [Example 81]
Ki [1]: 0.297 µM | Ki [2]: 0.0158 µM | Ki [3]: 0.222 µM | Ki [4]: 0.023 µM

OCCc1nc2cnc3[nH]ccc3c2n1C1CCN(Cc2ccccc2)CC1 [Example 82]
Ki [1]: 0.0142 µM | Ki [2]: 0.0113 µM | Ki [3]: 0.194 µM | Ki [4]: 0.0035 µM

Cn1nccc1C(=O)N1CCC(n2cnc3cnc4[nH]ccc4c32)CC1 [Example 84, (2-Methyl-2H-pyrazol-3-yl)-[4-(6H-1,3,5,6-tetraaza-as-indacen-1-yl)-piperidin-1-yl]methanone]
Ki [1]: 0.747 µM | Ki [2]: 0.0361 µM | Ki [3]: 0.16 µM | Ki [4]: 0.0116 µM

c1cc2c(ncc3ncn(C4CCN(C5CCOCC5)CC4)c32)[nH]1 [Example 85, 1-[-(Tetrahydro-pyran-4-yl)-piperidin-4-yl]-1,6-dihydro-1,3,5,6-tetraaza-as-indacene]
Ki [1]: 0.716 µM | Ki [2]: 0.0643 µM | Ki [3]: 0.153 µM | Ki [4]: 0.0322 µM

Cc1nc2cnc3[nH]ccc3c2n1C1CCN(S(C)(=O)=O)CC1 [Example 86, 1-(1-Methanesulfonyl-piperidin-4-yl)-2-methyl-1,6-dihydro-1,3,5,6-tetraaza-as-indacene]
Ki [1]: 0.0716 µM | Ki [2]: 0.0178 µM | Ki [3]: 0.0486 µM | Ki [4]: 0.00753 µM

O=S(=O)(c1cccnc1)N1CCC(n2cnc3cnc4[nH]ccc4c32)CC1 [Example 88, 1-[1-(Pyridine-3-sulfonyl)-piperidin-4-yl]-1,6-dihydro-1,3,5,6-tetraaza-as-indacene]
Ki [1]: 0.407 µM | Ki [2]: 0.0106 µM | Ki [3]: 0.0659 µM | Ki [4]: 0.00898 µM

O=S(=O)(N1CCC(n2cnc3cnc4[nH]ccc4c32)CC1)C(F)(F)F [Example 89, 1-(1-Trifluoromethanesulfonyl-piperidin-4-yl)-1,6-dihydro-1,3,5,6-tetraaza-as-indacene]
Ki [1]: 0.283 µM | Ki [2]: 0.0128 µM | Ki [3]: 0.0983 µM | Ki [4]: 0.0108 µM

c1cc2c(ncc3ncn(C4CCN(Cc5cocn5)CC4)c32)[nH]1 [Example 90, 1-(1-Oxazol-4-ylmethyl-piperidin-4-yl)-1,6-dihydro-1,3,5,6-tetraaza-as-indacene]
Ki [1]: 0.0469 µM | Ki [2]: 0.00875 µM | Ki [3]: 0.0631 µM | Ki [4]: 0.00681 µM

CS(=O)(=O)c1cccc(CN2CCC(n3cnc4cnc5[nH]ccc5c43)CC2)c1 [Example 91, 1-[1-(3-Methanesulfonyl-benzyl)-piperidin-4-yl]-1,6-dihydro-1,3,5,6-tetraaza-as-indacene]
Ki [1]: 0.0821 µM | Ki [2]: 0.00331 µM | Ki [3]: 0.142 µM | Ki [4]: 0.00064 µM

c1cnc(CN2CCC(n3cnc4cnc5[nH]ccc5c43)CC2)cn1 [Example 92, 1-(1-Pyrazin-2-ylmethyl-piperidin-4-yl)-1,6-dihydro-1,3,5,6-tetraaza-as-indacene]
Ki [1]: 0.0256 µM | Ki [2]: 0.00615 µM | Ki [3]: 0.109 µM | Ki [4]: 0.00364 µM

c1cc2c(ncc3ncn([C@@H]4C[C@H]5CC[C@@H](C4)N5)c32)[nH]1 [Example 93, (1S,3S,5R)-1-(8-aza-bicyclo[3.2.1]oct-3-yl)-1,6-dihydro-1,3,5,6-tetraaza-as-indacene]
Ki [1]: 1 µM | Ki [2]: 0.102 µM | Ki [3]: 0.323 µM | Ki [4]: 0.0296 µM

N#Cc1cccc(N2CCC(n3cnc4cnc5[nH]ccc5c43)CC2)n1 [Example 94, 4-(6H-1,3,5,6-Tetraaza-as-indacen-1-yl)-3,4,5,6-tetrahydro-2H-[1,2′]bipyridinyl-6′-carbonitrile]
Ki [1]: 0.00769 µM | Ki [2]: 0.00282 µM | Ki [3]: 0.021 µM | Ki [4]: 0.00073 µM

N#Cc1ccc(N2CCC(n3cnc4cnc5[nH]ccc5c43)CC2)nc1 [Example 95, 4-(6H-1,3,5,6-Tetraaza-as-indacen-1-yl)-3,4,5,6-tetrahydro-2H-[1,2′]bipyridinyl-5′-carbonitrile]
Ki [1]: 0.161 µM | Ki [2]: 0.0354 µM | Ki [3]: 0.102 µM | Ki [4]: 0.0122 µM

CS(=O)(=O)N1[C@@H]2CC[C@H]1C[C@H](n1cnc3cnc4[nH]ccc4c31)C2 [Example 97, 1-((1S,3S,5R)-8-Methanesulfonyl-8-aza-bicyclo[3.2.1]oct-3-yl)-1,6-dihydro-1,3,5,6-tetraaza-as-indacene]
Ki [1]: 0.0296 µM | Ki [2]: 0.00232 µM | Ki [3]: 0.0198 µM | Ki [4]: 0.00351 µM

N#CCCN1[C@@H]2CC[C@H]1C[C@H](n1cnc3cnc4[nH]ccc4c31)C2 [Example 98, 3-[(1S,3S,5R)-3-(6H-1,3,5,6-Tetraaza-as-indacen-1-yl)-8-aza-bicyclo[3.2.1]oct-8-yl]propionitrile]
Ki [1]: 0.0118 µM | Ki [2]: 0.00163 µM | Ki [3]: 0.00864 µM | Ki [4]: 0.00204 µM
